Measured values published in the supplement of paper PMC10307832.

What was measured:
Assay in all cases: relative viability (nuclei count vs DMSO), 5 days (fraction); higher = more cells survive
Trametinib + Pemetrexed = compound: CC(=O)Nc1cccc(-n2c(=O)n(C3CC3)c(=O)c3c(Nc4ccc(I)cc4F)n(C)c(=O)c(C)c32)c1 [Trametinib] + Nc1nc2[nH]cc(CCc3ccc(C(=O)N[C@@H](CCC(=O)O)C(=O)O)cc3)c2c(=O)[nH]1 [Pemetrexed] (partner 0.2 µM)
Outline: (§1)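 Values are medians from duplicate plates. Each reflects relative viability, defined as the nuclei count of treated wells over that of vehicle wells. Lung cancer cell lines in 1536-well plates were pin-tool dosed one day after seeding with one drug alone or with a fixed anchor-drug dose plus five library-drug doses (not always all listed) in √10 steps, then fixed, stained and imaged at 4× after 5 days.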

[1] = compound: CN1C=C(C2=CC=CC=C21)/C=C\3/C4=C(C=CC=N4)NC3=O + CCNC(=O)c1noc(-c2cc(C(C)C)c(O)cc2O)c1-c1ccc(CN2CCOCC2)cc1 [Luminespib] (partner 0.01 µM)
Outline: as §1

Trametinib + Vorinostat = compound: CC(=O)Nc1cccc(-n2c(=O)n(C3CC3)c(=O)c3c(Nc4ccc(I)cc4F)n(C)c(=O)c(C)c32)c1 [Trametinib] + O=C(CCCCCCC(=O)Nc1ccccc1)NO [Vorinostat] (partner 1 µM)
Outline: as §1

Trametinib + Pictilisib = compound: CC(=O)Nc1cccc(-n2c(=O)n(C3CC3)c(=O)c3c(Nc4ccc(I)cc4F)n(C)c(=O)c(C)c32)c1 [Trametinib] + CS(=O)(=O)N1CCN(Cc2cc3nc(-c4cccc5[nH]ncc45)nc(N4CCOCC4)c3s2)CC1 [Pictilisib] (partner 1 µM)
Outline: as §1

Row | Cell Line | relative viability (Trametinib + Pemetrexed; first compound 0.0025 µM) | relative viability (Trametinib + Pemetrexed; first compound 0.007906 µM) | relative viability (Trametinib + Pemetrexed; first compound 0.025 µM) | relative viability (Trametinib + Pemetrexed; first compound 0.07906 µM) | relative viability (Trametinib + Pemetrexed; first compound 0.25 µM) | relative viability ([1]; first compound 0.02 µM) | relative viability ([1]; first compound 0.06325 µM) | relative viability ([1]; first compound 0.2 µM) | relative viability ([1]; first compound 0.6325 µM) | relative viability ([1]; first compound 2 µM) | relative viability (Trametinib + Vorinostat; first compound 0.0025 µM) | relative viability (Trametinib + Vorinostat; first compound 0.007906 µM) | relative viability (Trametinib + Vorinostat; first compound 0.025 µM) | relative viability (Trametinib + Vorinostat; first compound 0.07906 µM) | relative viability (Trametinib + Vorinostat; first compound 0.25 µM) | relative viability (Trametinib + Pictilisib; first compound 0.0025 µM) | relative viability (Trametinib + Pictilisib; first compound 0.007906 µM) | relative viability (Trametinib + Pictilisib; first compound 0.025 µM) | relative viability (Trametinib + Pictilisib; first compound 0.07906 µM) | relative viability (Trametinib + Pictilisib; first compound 0.25 µM)
1 | LCLC-97TM1 | 0.188 | 0.238 | 0.181 | 0.176 | 0.152 | 0.669 | 0.611 | 0.82 | 0.809 | 0.944 | 0.722 | 0.701 | 0.435 | 0.225 | 0.0816 | 0.141 | 0.135 | 0.11 | 0.128 | 0.0971
2 | EMC-BAC-2 | 0.547 | 0.489 | 0.572 | 0.544 | 0.56 | 1.19 | 1.18 | 1.29 | 1.17 | 1.19 | 0.742 | 0.602 | 0.448 | – | 0.326 | 0.517 | 0.429 | 0.379 | 0.423 | 0.331
3 | NCI-H441 | 0.3 | 0.306 | 0.247 | 0.261 | 0.285 | 0.341 | 0.341 | 0.296 | 0.513 | 0.36 | 0.819 | 0.797 | 0.722 | 0.749 | 0.608 | 0.44 | 0.306 | 0.234 | 0.214 | 0.163
4 | LCLC-103H | 0.482 | 0.495 | 0.523 | 0.5 | 0.519 | 0.933 | 0.809 | 0.934 | 1.07 | 1.17 | 0.808 | 0.636 | 0.699 | 0.631 | 0.588 | 0.641 | 0.547 | 0.451 | 0.458 | 0.406
5 | HOP-62 | 0.407 | 0.31 | 0.345 | 0.308 | 0.183 | 0.783 | 0.986 | 0.802 | 0.946 | 0.957 | 0.648 | 0.467 | 0.277 | 0.301 | 0.106 | 0.597 | 0.229 | 0.128 | 0.133 | 0.0772
6 | NCI-H1793 | 0.617 | 0.481 | 0.315 | 0.365 | 0.338 | 0.228 | 0.202 | 0.204 | 0.186 | 0.189 | 0.579 | 0.432 | 0.317 | 0.317 | 0.221 | 0.4 | 0.314 | 0.169 | 0.307 | 0.232
7 | NCI-H1355 | 1.03 | 0.946 | 0.516 | 0.717 | 0.615 | 0.65 | 0.623 | 0.669 | 0.533 | 0.629 | 0.605 | 0.524 | 0.341 | 0.377 | 0.291 | 0.339 | 0.313 | 0.199 | 0.228 | 0.214
8 | COR-L23 | 0.192 | 0.211 | 0.23 | 0.214 | 0.209 | 0.623 | 0.632 | 0.702 | 0.699 | 0.789 | 0.463 | 0.465 | 0.529 | 0.421 | 0.312 | 0.72 | 0.756 | 0.555 | 0.439 | 0.308
9 | HCC-44 | 0.647 | 0.702 | 0.734 | 0.763 | 0.772 | 1.03 | 0.925 | – | 1.02 | 1.02 | 1.08 | 1.06 | 1.09 | 0.909 | 0.808 | 0.581 | 0.428 | 0.276 | 0.291 | 0.272
10 | A-427 | 1.08 | 1.1 | 0.977 | 0.839 | 0.679 | 0.849 | 0.902 | – | 1.08 | 1.01 | 0.948 | 0.896 | 0.723 | 0.501 | 0.51 | 0.632 | 0.426 | 0.2 | 0.184 | 0.164
11 | NCI-H520 | 0.645 | 0.69 | 0.667 | 0.648 | 0.533 | 0.204 | 0.24 | 0.217 | 0.211 | 0.229 | 0.868 | 0.733 | 0.68 | 0.691 | 0.532 | 0.294 | 0.292 | 0.259 | 0.195 | 0.217
12 | LXF-289 | 0.844 | 0.832 | 0.688 | 0.672 | 0.772 | 0.668 | 0.662 | 0.741 | 0.69 | 0.785 | 0.711 | 0.587 | 0.538 | 0.529 | 0.55 | 0.674 | 0.618 | 0.424 | 0.388 | 0.264
13 | NCI-H2087 | 0.554 | 0.642 | 0.468 | 0.179 | 0.281 | 0.173 | 0.175 | 0.197 | 0.151 | 0.154 | 0.595 | 0.368 | 0.463 | 0.237 | 0.12 | 0.846 | 0.344 | 0.26 | 0.237 | 0.382
14 | CAL-12T | 1.21 | 1.15 | 0.753 | 0.483 | 0.589 | 0.22 | 0.561 | 0.48 | 0.432 | 0.381 | 0.728 | 0.637 | 0.394 | 0.41 | 0.265 | 0.348 | 0.29 | 0.271 | 0.279 | 0.318
15 | NCI-H596 | 0.475 | 0.445 | 0.477 | 0.546 | 0.426 | 1 | 1.01 | 0.858 | 0.93 | 0.866 | 0.6 | 0.555 | 0.436 | 0.427 | 0.263 | 0.367 | 0.316 | 0.338 | 0.314 | 0.33
16 | PC-14 | 0.131 | 0.113 | 0.153 | 0.132 | 0.141 | 0.212 | 0.138 | – | 0.173 | 0.135 | 0.781 | 0.599 | 0.535 | 0.438 | 0.0917 | 0.667 | 0.546 | 0.24 | 0.141 | 0.107
